This note sets out measurements from patent EP4644396A1 (Visionpharma (Nantong) Co., Ltd, priority 2022, dated 2024).

Read-outs that look alike come from different tables or passages of the source.

One assay has as its target T1, human TLR7 (Homo sapiens, UniProt Q9NYK1).
T1 sequence (Q9NYK1 27-1049): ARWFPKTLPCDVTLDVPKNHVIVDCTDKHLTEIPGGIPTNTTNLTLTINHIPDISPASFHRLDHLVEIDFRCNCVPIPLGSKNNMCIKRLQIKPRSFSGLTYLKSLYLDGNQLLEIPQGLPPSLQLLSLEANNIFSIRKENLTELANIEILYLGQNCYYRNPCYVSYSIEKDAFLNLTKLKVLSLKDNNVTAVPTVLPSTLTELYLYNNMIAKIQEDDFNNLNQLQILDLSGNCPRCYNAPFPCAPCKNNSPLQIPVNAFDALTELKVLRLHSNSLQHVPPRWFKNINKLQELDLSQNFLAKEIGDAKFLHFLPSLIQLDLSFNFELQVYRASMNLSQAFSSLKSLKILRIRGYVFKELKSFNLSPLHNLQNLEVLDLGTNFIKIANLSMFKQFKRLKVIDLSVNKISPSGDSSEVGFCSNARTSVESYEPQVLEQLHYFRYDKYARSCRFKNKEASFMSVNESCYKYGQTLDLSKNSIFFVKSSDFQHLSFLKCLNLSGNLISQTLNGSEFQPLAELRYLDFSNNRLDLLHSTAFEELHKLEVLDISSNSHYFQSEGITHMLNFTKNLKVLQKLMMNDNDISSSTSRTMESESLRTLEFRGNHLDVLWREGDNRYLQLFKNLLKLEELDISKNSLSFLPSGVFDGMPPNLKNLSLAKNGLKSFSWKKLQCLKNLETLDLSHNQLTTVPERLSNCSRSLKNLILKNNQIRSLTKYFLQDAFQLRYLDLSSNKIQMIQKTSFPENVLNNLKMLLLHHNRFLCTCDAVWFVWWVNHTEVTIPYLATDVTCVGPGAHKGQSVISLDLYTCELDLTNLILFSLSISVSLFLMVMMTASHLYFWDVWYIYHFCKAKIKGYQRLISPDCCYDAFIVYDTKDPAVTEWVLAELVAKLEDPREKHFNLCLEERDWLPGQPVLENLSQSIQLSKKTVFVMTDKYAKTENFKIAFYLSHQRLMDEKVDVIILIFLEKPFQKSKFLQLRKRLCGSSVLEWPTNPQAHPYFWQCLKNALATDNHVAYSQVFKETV
Description: HEK-Blue hTLR7 SEAP reporter gene inhibition assay. The assay is classed as cell-based. In outline: (§1)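 SEAP read-out by Quanti-Blue after 20 h stimulation gave IC50 values. Stable hTLR7 or hTLR8 HEK-Blue cells were pretreated 15 min with compound at 0.001–36 µM final, then stimulated with 10 µM Gardiquimod (TLR7) or 10 µM TLR8 ligand.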

The target of the next assay is T2, human TLR8 (Homo sapiens, UniProt Q9NR97).
T2 construct: expressed in transfected cells
T2 sequence (Q9NR97 27-1041): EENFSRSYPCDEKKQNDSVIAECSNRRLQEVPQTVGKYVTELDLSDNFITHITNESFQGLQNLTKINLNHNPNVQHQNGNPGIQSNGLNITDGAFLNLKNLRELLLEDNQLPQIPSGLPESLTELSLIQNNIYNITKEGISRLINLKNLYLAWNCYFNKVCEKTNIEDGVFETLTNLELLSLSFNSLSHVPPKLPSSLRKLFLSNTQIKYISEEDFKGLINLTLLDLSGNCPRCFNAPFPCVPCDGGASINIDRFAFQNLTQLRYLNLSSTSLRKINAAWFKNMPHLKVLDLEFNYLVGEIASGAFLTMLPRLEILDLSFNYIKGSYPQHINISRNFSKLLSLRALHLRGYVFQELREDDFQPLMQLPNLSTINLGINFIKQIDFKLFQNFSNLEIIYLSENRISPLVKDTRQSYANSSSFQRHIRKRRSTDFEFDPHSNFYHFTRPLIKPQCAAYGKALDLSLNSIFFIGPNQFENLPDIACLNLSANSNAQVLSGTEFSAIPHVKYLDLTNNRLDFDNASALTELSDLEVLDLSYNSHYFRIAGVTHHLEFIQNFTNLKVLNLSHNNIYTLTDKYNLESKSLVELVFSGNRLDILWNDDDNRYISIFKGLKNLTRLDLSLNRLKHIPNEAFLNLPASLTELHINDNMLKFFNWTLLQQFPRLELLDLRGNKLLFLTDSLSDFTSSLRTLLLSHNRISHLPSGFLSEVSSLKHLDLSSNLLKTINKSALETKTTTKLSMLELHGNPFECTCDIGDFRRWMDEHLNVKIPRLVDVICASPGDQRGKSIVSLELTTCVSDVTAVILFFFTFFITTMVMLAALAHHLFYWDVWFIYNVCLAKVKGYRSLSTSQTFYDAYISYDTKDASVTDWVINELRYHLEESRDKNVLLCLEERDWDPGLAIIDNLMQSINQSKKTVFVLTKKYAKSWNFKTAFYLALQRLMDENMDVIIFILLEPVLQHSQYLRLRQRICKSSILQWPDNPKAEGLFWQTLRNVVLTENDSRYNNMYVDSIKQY
The experiment in a line: HEK-Blue hTLR8 SEAP reporter gene inhibition assay. The assay is classed as cell-based. In outline:
as §1
On the technique in general: In a reporter assay the amount or activity of a reporter protein is the signal.

The mark [1] stands for this setting: hTLR7 HEK-Blue cells, TLR7 ligand Gardiquimod 10 µM, 20 hours, SEAP by Quanti-blue, class symbols, read-out: HEK-Blue hTLR7 IC50.
Where [2] appears, read: hTLR8 HEK-Blue cells, TLR8 ligand 10 µM, 20 hours, SEAP by Quanti-blue, class symbols, read-out: HEK-Blue hTLR8 IC50.

The term IC50 denotes the concentration that inhibits the measured activity by half. Consider `C[C@@H]1CN(c2ccc(C#N)n3ncc(F)c23)Cc2c3c(nn21)CC(N1CCC(O)C1)CC3` (stereo partly drawn) [Example I-34, 3-Fluoro-4-((4R)-8-(3-hydroxypyrrolidin-1-yl)-4-methyl-3,4,7,8,9,10-hexahydropyrazino[1,2-b]indazol-2(1H)-yl)pyrazolo[1,5-a]pyridine-7-carbonitrile], for which the figures for the IC50 at human TLR7 (setting [1]) and at human TLR8 (setting [2]) were less than 0.05 µM and less than 0.1 µM, respectively.
`C[C@@H]1NCCc2c1nn1c2CN(c2ccc(C#N)n3ncc(F)c23)C[C@H]1C` [Example I-39, 4-((4R,7S)-4,7-dimethyl-3,4,7,8,9,10-hexahydropyrido[3',4':3,4]pyrazolo[1,5-a]pyrazin-2(1H)-yl)-3-fluoropyrazolo[1,5-a]pyridine-7-carbonitrile]: the values for the IC50 at human TLR7 (setting [1]) and at human TLR8 (setting [2]) were less than 0.05 µM and less than 0.1 µM, respectively.
With `C[C@@H]1CN(c2ccc(C#N)n3ncc(F)c23)Cc2c3c(nn21)CNCC3CO` (stereo partly drawn) [Example I-40, 3-Fluoro-4-((4R)-10-(hydroxymethyl)-4-methyl-3,4,7,8,9,10-hexahydropyrido [3',4':3,4]pyrazolo[1,5-a]pyrazin-2(1H)-yl)pyrazolo[1,5-a]pyridine-7-carbonitrile], the IC50 at human TLR7 (setting [1]) was greater than 0.05 µM; at human TLR8 (setting [2]), less than 0.1 µM.
As for `C[C@@H]1CN(c2ccc(C#N)n3ncc(F)c23)Cc2c3c(nn21)CN[C@H](CO)C3` [Example I-43, 3-fFuoro-4-((4R,9S)-9-(hydroxymethyl)-4-methyl-3,4,7,8,9,10-hexahydropyrido [3',4':3,4]pyrazolo[1,5-a]pyrazin-2(1H)-yl)pyrazolo[1,5-a]pyridine-7-carbonitrile], the IC50 against human TLR7 (HEK-Blue hTLR7 IC50 (µM)) is less than 0.05 µM; on human TLR8 (HEK-Blue hTLR8 IC50 (µM)), less than 0.1 µM.
For the molecule `C[C@@H]1CN(c2ccc(C#N)n3ncc(F)c23)Cc2c3c(nn21)C(C)(C)NCC3` [Example I-45, (R)-3-Fluoro-4-(4,7,7-trimethyl-3,4,7,8,9,10-hexahydropyrido[3',4':3,4]pyrazolo[1,5-a]pyrazin-2(1H)-yl)pyrazolo[1,5-a]pyridine-7-carbonitrile], the 50% inhibitory concentration (IC50) at human TLR7 (setting [1]) is less than 0.05 µM; on human TLR8 (setting [2]), less than 0.1 µM.
Consider `C[C@@H]1CN(c2ccc(C#N)n3ncc(F)c23)Cc2c3c(nn21)C1CCC(C3)N1` (stereo partly drawn) [Example I-52, 3-Fluoro-4-((4R)-4-methyl-1,3,4,7,8,9,10,11-octahydro-2H-7,10-epiminocyclohepta [3,4]pyrazolo[1,5-a]pyrazin-2-yl)pyrazolo[1,5-a]pyridine-7-carbonitrile], for which the IC50 is less than 0.05 µM at human TLR7 (setting [1]) and less than 0.1 µM on human TLR8 (setting [2]).
Take `C[C@@H]1Cc2c(nn3c2CN(c2ccc(C#N)n4ncc(F)c24)C[C@H]3C)[C@H](C)N1` [Example I-59, 3-Fluoro-4-((4R,7S,9R)-4,7,9-trimethyl-3,4,7,8,9,10-hexahydropyrido[3',4':3,4]pyrazolo[1,5-a]pyrazin-2(1H)-yl)pyrazolo[1,5-a]pyridine-7-carbonitrile]: the values for the half-inhibitory concentration (IC50) on human TLR7 (setting [1]) and on human TLR8 (setting [2]) were less than 0.05 µM and greater than 0.1 µM, respectively.
On to `CC(C)C1Cc2c(nn3c2CN(c2ccc(C#N)n4ncc(F)c24)C[C@H]3C)CN1` (stereo partly drawn) [Example I-60, 3-Fluoro-4-((4R)-9-isopropyl-4-methyl-3,4,7,8,9,10-hexahydropyrido[3',4':3,4]pyrazolo[1,5-a]pyrazin-2(1H)-yl)pyrazolo[1,5-a]pyridine-7-carbonitrile], for which the IC50 on human TLR7 (setting [1]) is less than 0.05 µM; at human TLR8 (setting [2]), greater than 0.1 µM.
For `C[C@@H]1CN(c2ccc(C#N)n3ncc(F)c23)Cc2c3c(nn21)CNC(CCOC(C)(C)C)C3` (stereo partly drawn) [Example I-61, 4-((4R)-9-(2-(tert-butoxy)ethyl)-4-methyl-3,4,7,8,9,10-hexahydropyridine[3',4':3,4]pyrazole[1,5-a]pyrazine-2(1H)-yl)-3-fluoropyrazole[1,5-a]pyridine-7-caronitrile], the IC50 was less than 0.05 µM against human TLR7 (HEK-Blue hTLR7 IC50 (µM)) and greater than 0.1 µM against human TLR8 (HEK-Blue hTLR8 IC50 (µM)).
Take `C[C@@H]1CN(c2ccc(C#N)n3ncc(F)c23)Cc2c3c(nn21)CNC(c1ccn[nH]1)C3` (stereo partly drawn) [Example I-68, 3-Fluoro-4-((4R)-4-methyl-9-(1H-pyrazol-5-yl)-3,4,7,8,9,10-hexahydropyrido[3',4':3,4]pyrazolo[1,5-a]pyrazin-2(1H)-yl)pyrazolo[1,5-a]pyridine-7-carbonitrile]: the results for the IC50 on human TLR7 (setting [1]) and on human TLR8 (setting [2]) were greater than 0.05 µM and less than 0.1 µM, respectively.
Take `C[C@@H]1CN(c2ccc(C#N)n3ncc(F)c23)Cc2c3c(nn21)CNC(C(C)(C)O)C3` (stereo partly drawn) [Example I-74, 3-Fluoro-4-((4R)-9-(2-hydroxypropan-2-yl)-4-methyl-3,4,7,8,9,10-hexahydropyrido [3',4':3,4]pyrazolo[1,5-a]pyrazin-2(1H)-yl)pyrazolo[1,5-a]pyridine-7-carbonitrile]: the IC50 on human TLR7 (setting [1]) was greater than 0.05 µM; on human TLR8 (setting [2]) it was greater than 0.1 µM.
As to `C[C@H]1CN(c2ccc(C#N)n3ncc(F)c23)Cc2c3c(nn21)CNCC3` [Example I-76, (S)-3-Fluoro-4-(4-methyl-3,4,7,8,9,10-hexahydropyrido[3',4':3,4]pyrazolo[1,5-a]pyrazin-2(1H)-yl)pyrazolo[1,5-a]pyridine-7-carbonitrile], the IC50 on human TLR7 (setting [1]) was greater than 0.05 µM; at human TLR8 (setting [2]) it was greater than 0.1 µM.
`C[C@@H]1CN(c2ccc(C#N)n3ncc(F)c23)Cc2c3c(nn21)CN[C@@H](CO)C3` [Example I-77, 3-Fluoro-4-((4R,9R)-9-(hydroxymethyl)-4-methyl-3,4,7,8,9,10-hexahydropyrido [3',4':3,4]pyrazolo[1,5-a]pyrazin-2(1H)-yl)pyrazolo[1,5-a]pyridine-7-carbonitrile]: the IC50 at human TLR7 (setting [1]) was greater than 0.05 µM; at human TLR8 (setting [2]), less than 0.1 µM.
The matching figures for `C[C@@H]1CN(c2ccc(C#N)n3ncc(F)c23)Cc2c3c(nn21)CNC(Cc1ccn[nH]1)C3` (stereo partly drawn) [Example I-79, 4-((4R)-9-((1H-pyrazol-5-yl)methyl)-4-methyl-3,4,7,8,9,10-hexahydropyrido[3',4':3,4]pyrazolo[1,5-a]pyrazin-2(1H)-yl)-3-fluoropyrazolo[1,5-a]pyridine-7-carbonitrile]: less than 0.05 µM and less than 0.1 µM.
On to `COC[C@H]1Cc2c(nn3c2CN(c2ccc(C#N)n4ncc(F)c24)C[C@H]3C)CN1` [Example I-82, 3-Fluoro-4-((4R,9R)-9-(methoxymethyl)-4-methyl-3,4,7,8,9,10-hexahydropyrido [3',4':3,4]pyrazolo[1,5-a]pyrazin-2(1H)-yl)pyrazolo[1,5-a]pyridine-7-carbonitrile], for which the results for the concentration for half-maximal inhibition (IC50) on human TLR7 (setting [1]) and at human TLR8 (setting [2]) were less than 0.05 µM and greater than 0.1 µM, respectively.
`C[C@@H]1CN(c2ccc(C#N)n3ncc(F)c23)Cc2c3c(nn21)CNC(C)(C)C3` [Example I-83, (R)-3-Fluoro-4-(4,9,9-trimethyl-3,4,7,8,9,10-hexahydropyrido[3',4':3,4]pyrazolo [1,5-a]pyrazin-2(1H)-yl)pyrazolo[1,5-a]pyridine-7-carbonitrile]: the IC50 at human TLR7 (setting [1]) was less than 0.05 µM; on human TLR8 (setting [2]), less than 0.1 µM.
